pIC50: −log10 of the molar value.
Target: human PAD4 (Homo sapiens (Human), UniProt Q9UM07)
Assay: In Vitro PAD4 BAEE Biochemical Assay
Conditions: geometric mean of multiple experiments
Procedure, shortened: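 Recombinant human PAD4 (His-SUMO tag removed, E. coli-expressed), 5 nM, preincubated with compound and 2 mM CaCl2 30 min at 25 °C in MOPS pH 7.6 with DTT; 3 mM BAEE added for 2 h at 25 °C, EDTA stop. Released ammonia detected by o-phthalaldehyde/DTT fluorescence (ex 405, em 535 nm).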

[1] = human PAD4, BAEE substrate, 5 nM PAD4, 2 mM calcium chloride, 3 mM BAEE

human PAD4, sequence (Q9UM07 2-663): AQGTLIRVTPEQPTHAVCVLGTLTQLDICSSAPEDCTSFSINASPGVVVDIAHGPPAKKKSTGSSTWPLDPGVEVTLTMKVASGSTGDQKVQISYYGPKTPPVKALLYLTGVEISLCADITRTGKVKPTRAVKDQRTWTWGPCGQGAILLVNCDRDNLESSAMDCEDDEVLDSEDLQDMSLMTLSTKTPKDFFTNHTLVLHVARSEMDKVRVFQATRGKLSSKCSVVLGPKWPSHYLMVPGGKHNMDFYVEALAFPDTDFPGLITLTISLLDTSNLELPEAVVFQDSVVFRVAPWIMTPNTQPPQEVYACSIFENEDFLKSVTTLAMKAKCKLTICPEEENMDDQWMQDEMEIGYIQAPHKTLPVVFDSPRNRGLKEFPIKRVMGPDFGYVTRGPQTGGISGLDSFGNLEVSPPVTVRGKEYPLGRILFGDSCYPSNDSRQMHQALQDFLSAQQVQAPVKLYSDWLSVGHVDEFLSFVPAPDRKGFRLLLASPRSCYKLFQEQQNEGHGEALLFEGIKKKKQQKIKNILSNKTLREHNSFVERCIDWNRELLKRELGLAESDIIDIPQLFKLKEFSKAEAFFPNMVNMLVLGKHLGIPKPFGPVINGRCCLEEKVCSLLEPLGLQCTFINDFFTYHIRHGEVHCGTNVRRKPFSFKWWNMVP

Row | SMILES | pIC50 [1] | pIC50 (recombinant PAD4 5 nM, 2 mM calcium chloride, 3 mM BAEE substrate)
1 | COc1cc(C(=O)N2[C@H]3CC[C@@H]2[C@H](N)C3)cc2nc(-c3cc4ccc([C@@H](C)NC(=O)c5ccc(F)cc5)nc4n3CC3CC3)n(C)c12 [Example 208, N-((R)-1-(2-(5-((1R,2R,4S)-2-amino-7-azabicyclo[2.2.1]heptane-7-carbonyl)-7-methoxy-1-methyl-1H-benzo[d]imidazol-2-yl)-1-(cyclopropylmethyl)-1H-pyrrolo[2,3-b]pyridin-6-yl)ethyl)-4-fluorobenzamide] | 6.86 | 
2 | COc1cc(C(=O)N2C[C@H](N)CCN2C)cc2nc(-c3cc4ccc(C(C)(C)NC(=O)c5ccccc5)nc4n3CC3CC3)n(C)c12 [Example 209] | 6.70 | 
3 | COc1cc(C(=O)N2C[C@H](N)CCN2C)cc2nc(-c3cc4ccc([C@@H](C)NC(=O)c5c(F)cccc5F)nc4n3CC3CC3)n(C)c12 [Example 210, N-((R)-1-(2-(5-((R)-5-amino-2-methylhexahydropyridazine-1-carbonyl)-7-methoxy-1-methyl-1H-benzo[d]imidazol-2-yl)-1-(cyclopropylmethyl)-1H-pyrrolo[2,3-b]pyridin-6-yl)ethyl)-2,6-difluorobenzamide] | 6.89 | 
4 | COc1cc(C(=O)N2[C@H]3CC[C@@H]2[C@H](N)C3)cc2nc(-c3cc4ccc([C@@H](C)NC(=O)C(C)n5cccn5)nc4n3CC3CC3)n(C)c12 (stereo partly drawn) [Example 211, N-((R)-1-(2-(5-((1R,2R,4S)-2-amino-7-azabicyclo[2.2.1]heptane-7-carbonyl)-7-methoxy-1-methyl-1H-benzo[d]imidazol-2-yl)-1-(cyclopropylmethyl)-1H-pyrrolo[2,3-b]pyridin-6-yl)ethyl)-2-(1H-pyrazol-1-yl)propanamide] | 7.04 | 
5 | COc1cc(C(=O)N2C[C@H](N)CCN2C)cc2nc(-c3cc4ccc([C@@H](C)NC(=O)c5cccc(F)c5C)nc4n3CC3CC3)n(C)c12 [Example 212, N-((R)-1-(2-(5-((R)-5-amino-2-methylhexahydropyridazine-1-carbonyl)-7-methoxy-1-methyl-1H-benzo[d]imidazol-2-yl)-1-(cyclopropylmethyl)-1H-pyrrolo[2,3-b]pyridin-6-yl)ethyl)-3-fluoro-2-methylbenzamide] | 6.77 | 
6 | COc1cc(C(=O)N2C[C@H](N)CCN2C)cc2nc(-c3cc4ccc([C@@H](C)NC(=O)c5cc(F)cc(F)c5C)nc4n3CC3CC3)n(C)c12 [Example 213, N-((R)-1-(2-(5-((R)-5-amino-2-methylhexahydropyridazine-1-carbonyl)-7-methoxy-1-methyl-1H-benzo[d]imidazol-2-yl)-1-(cyclopropylmethyl)-1H-pyrrolo[2,3-b]pyridin-6-yl)ethyl)-3,5-difluoro-2-methylbenzamide] | 6.87 | 
7 | COc1cc(C(=O)N2C[C@H](N)CCN2C)cc2nc(-c3cc4ccc([C@@H](C)NC(=O)c5ccc(C)nc5C)nc4n3CC3CC3)n(C)c12 [Example 214, N-((R)-1-(2-(5-((R)-5-amino-2-methylhexahydropyridazine-1-carbonyl)-7-methoxy-1-methyl-1H-benzo[d]imidazol-2-yl)-1-(cyclopropylmethyl)-1H-pyrrolo[2,3-b]pyridin-6-yl)ethyl)-2,6-dimethylnicotinamide] | 7.00 | 
8 | COc1cc(C(=O)N2C[C@H](N)CCN2C)cc2nc(-c3cc4ccc([C@@H](C)NC(=O)C5(CCF)CC5)nc4n3CC3CC3)n(C)c12 [Example 215, N-((R)-1-(2-(5-((R)-5-amino-2-methylhexahydropyridazine-1-carbonyl)-7-methoxy-1-methyl-1H-benzo[d]imidazol-2-yl)-1-(cyclopropylmethyl)-1H-pyrrolo[2,3-b]pyridin-6-yl)ethyl)-1-(2-fluoroethyl)cyclopropane-1-carboxamide] | 6.95 | 
9 | C[C@@H](NC(=O)C(C)(C)C)c1ccc2cc(-c3nc4cc(C(=O)N[C@H]5CNCC[C@@H]5F)c(F)cc4n3C)n(CC3CC3)c2n1 [Example 216, 2-(1-(cyclopropylmethyl)-6-((R)-1-pivalamidoethyl)-1H-pyrrolo[2,3-b]pyridin-2-yl)-6-fluoro-N-((3S,4S)-4-fluoropiperidin-3-yl)-1-methyl-1H-benzo[d]imidazole-5-carboxamide] | 6.80 | 
10 | C[C@@H](NC(=O)C12CC(F)(C1)C2)c1ccc2cc(-c3nc4cc(C(=O)N5C[C@H](N)[C@@H]6CC[C@H]5C6)cc(F)c4n3C3CC3)n(CC3CC3)c2n1 [Example 219, N-((R)-1-(2-(5-((1S,4R,5R)-4-amino-2-azabicyclo[3.2.1]octane-2-carbonyl)-1-cyclopropyl-7-fluoro-1H-benzo[d]imidazol-2-yl)-1-(cyclopropylmethyl)-1H-pyrrolo[2,3-b]pyridin-6-yl)ethyl)-3-fluorobicyclo[1.1.1]pentane-1-carboxamide] |  | 7.10
11 | COc1cc(C(=O)N2C[C@H](N)[C@@H]3CC[C@H]2C3)cc2nc(-c3cc4ccc([C@@H](C)NC(=O)[C@H]5CC5(F)F)nc4n3CC3CC3)n(C)c12 [Example 220, (R)-N-((R)-1-(2-(5-((1S,4R,5R)-4-amino-2-azabicyclo[3.2.1]octane-2-carbonyl)-7-methoxy-1-methyl-1H-benzo[d]imidazol-2-yl)-1-(cyclopropylmethyl)-1H-pyrrolo[2,3-b]pyridin-6-yl)ethyl)-2,2-difluorocyclopropane-1-carboxamide] | 7.26 | 
12 | COc1cc(C(=O)N2C[C@H](N)[C@@H]3CC[C@H]2C3)cc2nc(-c3cc4ccc([C@@H](C)NC(=O)C(C)(C)C)nc4n3CC3CC3)n(C)c12 [Example 221, N-((R)-1-(2-(5-((1S,4R,5R)-4-amino-2-azabicyclo[3.2.1]octane-2-carbonyl)-7-methoxy-1-methyl-1H-benzo[d]imidazol-2-yl)-1-(cyclopropylmethyl)-1H-pyrrolo[2,3-b]pyridin-6-yl)ethyl)pivalamide] | 7.21 | 
13 | COc1cc(C(=O)N2C[C@H](N)[C@@H]3CC[C@H]2C3)cc2nc(-c3cc4ccc([C@@H](C)NC(=O)c5ccccc5)nc4n3CC3CC3)n(C)c12 [Example 222, N-((R)-1-(2-(5-((1S,4R,5R)-4-amino-2-azabicyclo[3.2.1]octane-2-carbonyl)-7-methoxy-1-methyl-1H-benzo[d]imidazol-2-yl)-1-(cyclopropylmethyl)-1H-pyrrolo[2,3-b]pyridin-6-yl)ethyl)benzamide] | 7.27 | 
14 | COc1cc(C(=O)N2C[C@H](N)[C@@H]3CC[C@H]2C3)cc2nc(-c3cc4ccc([C@@H](C)NC(=O)C56CC(F)(C5)C6)nc4n3CC3CC3)n(C)c12 [Example 223, N-[(1R)-1-[2-[5-[(1S,4R,5R)-4-amino-2-azabicyclo[3.2.1]octane-2-carbonyl]-7-methoxy-1-methyl-benzimidazol-2-yl]-1-(cyclopropylmethyl)pyrrolo[2,3-b]pyridin-6-yl]ethyl]-3-fluorobicyclo[1.1.1]pentane-1-carboxamide] | 7.24 | 
15 | COc1cc(C(=O)N2C[C@H](N)[C@@H]3CC[C@H]2C3)cc2nc(-c3cc4ccc([C@@H](C)NC(=O)c5cnn(C(F)F)c5)nc4n3CC3CC3)n(C)c12 [Example 224, N-((R)-1-(2-(5-((1S,4R,5R)-4-amino-2-azabicycIo[3.2.1]octane-2-carbonyl)-7-methoxy-1-methyl-1H-benzo[d]imidazol-2-yl)-1-(cyclopropylmethyl)-1H-pyrrolo[2,3-b]pyridin-6-yl)ethyl)-1-(difluoromethyl)-1H-pyrazole-4-carboxamide] | 7.32 | 
16 | COc1cc(C(=O)N2C[C@H](N)[C@@H]3CC[C@H]2C3)cc2nc(-c3cc4ccc([C@@H](C)NC(=O)c5ccc(Cl)nc5)nc4n3CC3CC3)n(C)c12 [Example 225, N-((R)-1-(2-(5-((1S,4R,5R)-4-amino-2-azabicyclo[3.2.1]octane-2-carbonyl)-7-methoxy-1-methyl-1H-benzo[d]imidazol-2-yl)-1-(cyclopropylmethyl)-1H-pyrrolo[2,3-b]pyridin-6-yl)ethyl)-6-chloronicotinamide] | 7.32 | 
17 | C[C@@H](NC(=O)[C@@H]1CC1(F)F)c1ccc2cc(-c3nc4cc(C(=O)N5C[C@H](N)[C@@H]6CC[C@H]5C6)cc(F)c4n3C3CC3)n(CC3CC3)c2n1 [Example 226, (S)-N-((R)-1-(2-(5-((1S,4R,5R)-4-amino-2-azabicyclo[3.2.1]octane-2-carbonyl)-1-cyclopropyl-7-fluoro-1H-benzo[d]imidazol-2-yl)-1-(cyclopropylmethyl)-1H-pyrrolo[2,3-b]pyridin-6-yl)ethyl)-2,2-difluorocyclopropane-1-carboxamide] | 7.27 | 
18 | C[C@@H](NC(=O)[C@H]1CC1(F)F)c1ccc2cc(-c3nc4cc(C(=O)N5C[C@H](N)[C@@H]6CC[C@H]5C6)cc(F)c4n3C3CC3)n(CC3CC3)c2n1 [Example 227, (R)-N-((R)-1-(2-(5-((1S,4R,5R)-4-amino-2-azabicyclo[3.2.1]octane-2-carbonyl)-1-cyclopropyl-7-fluoro-1H-benzo[d]imidazol-2-yl)-1-(cyclopropylmethyl)-1H-pyrrolo[2,3-b]pyridin-6-yl)ethyl)-2,2-difluorocyclopropane-1-carboxamide] | 7.33 | 
19 | COc1cc(C(=O)N2C[C@H](N)[C@@H]3CC[C@H]2C3)cc2nc(-c3cc4ccc([C@@H](C)NC(=O)C5CC(F)(F)C5)nc4n3CC3CC3)n(C)c12 [Example 228, N-((R)-1-(2-(5-((1S,4R,5R)-4-amino-2-azabicyclo[3.2.1]octane-2-carbonyl)-7-methoxy-1-methyl-1H-benzo[d]imidazol-2-yl)-1-(cyclopropylmethyl)-1H-pyrrolo[2,3-b]pyridin-6-yl)ethyl)-3,3-difluorocyclobutane-1-carboxamide] | 7.08 | 
20 | COc1cc(C(=O)N2C[C@H](N)[C@@H]3CC[C@H]2C3)cc2nc(-c3cc4ccc([C@@H](C)NC(=O)C56CC(Cl)(C5)C6)nc4n3CC3CC3)n(C)c12 [Example 229, N-((R)-1-(2-(5-((1S,4R,5R)-4-amino-2-azabicyclo[3.2.1]octane-2-carbonyl)-7-methoxy-1-methyl-1H-benzo[d]imidazol-2-yl)-1-(cyclopropylmethyl)-1H-pyrrolo[2,3-b]pyridin-6-yl)ethyl)-3-chlorobicyclo[1.1.1]pentane-1-carboxamide] | 7.08 | 

— patent US11878965B2, “Inhibitors of peptidylarginine deiminases” (Gilead Sciences, Inc., priority 2020, dated 2024)
